Source: PubChem BioAssay AID2060907 (Molecular Pharmacology Branch, DTP, NCI, 2025)

Test system: 388556-164-R-J1-PDC complex spheroid viability
Assay: Anticancer human tumor 388556-164-R-J1-PDC patient-derived colon adenocarcinoma cell line growth inhibition [RAS]
Conditions: for IC50: curve of first compound; for viability, T/C: stronger effect = lower value
How it was run: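 Multi-cell-type spheroids: tumor cells plus HUVEC endothelial cells and mesenchymal stem cells. RAS-pathway inhibitors were combined with targeted agents, each dosed in half-log steps down from clinical Cmax, or from 10 microM when Cmax was unknown.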
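Note: spheroids exposed to compound for 7 days before readout.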
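Throughout, for viability, T/C: 100% = DMSO vehicle control luminescence.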

Molecule `CC(=O)OC12COC1CC(O)C1(C)C(=O)C(O)C3=C(C)C(OC(=O)C(O)C(NC(=O)OC(C)(C)C)c4ccccc4)CC(O)(C(OC(=O)c4ccccc4)C21)C3(C)C` (configuration not stated) + CCn1c(-c2cccnc2C(C)OC)c2c3cc(ccc31)N1CCOC(CC(NC(=O)C(C(C)C)N(C)C(=O)C3(F)CCN(C(=O)C#CC(C)(C)N(C)C)CC3)C(=O)N3CCCC(N3)C(=O)OCC(C)(C)C2)C1 has an IC50 (second compound 0.000949 µM) of over 10 µM, an IC50 (second compound 0.003 µM) of over 10 µM and an IC50 (second compound 0.00949 µM) of over 10 µM. The IC50 (second compound 0.03 µM) was over 10 µM, the IC50 (second compound 0.0949 µM) was over 10 µM and the IC50 (second compound 0.3 µM) was over 10 µM. The viability, T/C (second compound 0.000949 µM, first compound 0.0316 µM) was 86%, the viability, T/C (second compound 0.000949 µM, first compound 0.1 µM) was 83.4% and the viability, T/C (second compound 0.000949 µM, first compound 0.316 µM) was 70.5%. It also gave a viability, T/C (second compound 0.000949 µM, first compound 1 µM) of 73.7%, a viability, T/C (second compound 0.000949 µM, first compound 3.16 µM) of 80.7% and a viability, T/C (second compound 0.000949 µM, first compound 10 µM) of 74.7%. For the same molecule, the viability, T/C (second compound 0.003 µM, first compound 0.0316 µM) was 92.2%, the viability, T/C (second compound 0.003 µM, first compound 0.1 µM) was 78.8% and the viability, T/C (second compound 0.003 µM, first compound 0.316 µM) was 79%. It also gave a viability, T/C (second compound 0.003 µM, first compound 1 µM) of 76%, a viability, T/C (second compound 0.003 µM, first compound 3.16 µM) of 75.1% and a viability, T/C (second compound 0.003 µM, first compound 10 µM) of 74.4%. It also gave a viability, T/C (second compound 0.00949 µM, first compound 0.0316 µM) of 86%, a viability, T/C (second compound 0.00949 µM, first compound 0.1 µM) of 83.4% and a viability, T/C (second compound 0.00949 µM, first compound 0.316 µM) of 76.6%. It also gave a viability, T/C (second compound 0.00949 µM, first compound 1 µM) of 75%, a viability, T/C (second compound 0.00949 µM, first compound 3.16 µM) of 79.4% and a viability, T/C (second compound 0.00949 µM, first compound 10 µM) of 71%. The viability, T/C (second compound 0.03 µM, first compound 0.0316 µM) was 95.5%, the viability, T/C (second compound 0.03 µM, first compound 0.1 µM) was 81.7% and the viability, T/C (second compound 0.03 µM, first compound 0.316 µM) was 70.7%. It also gave a viability, T/C (second compound 0.03 µM, first compound 1 µM) of 71.7%, a viability, T/C (second compound 0.03 µM, first compound 3.16 µM) of 79.1% and a viability, T/C (second compound 0.03 µM, first compound 10 µM) of 74.2%. The viability, T/C (second compound 0.0949 µM, first compound 0.0316 µM) was 80.7%, the viability, T/C (second compound 0.0949 µM, first compound 0.1 µM) was 79.2% and the viability, T/C (second compound 0.0949 µM, first compound 0.316 µM) was 81.8%. For the same molecule, the viability, T/C (second compound 0.0949 µM, first compound 1 µM) was 76.3%, the viability, T/C (second compound 0.0949 µM, first compound 3.16 µM) was 78% and the viability, T/C (second compound 0.0949 µM, first compound 10 µM) was 69.6%. The viability, T/C (second compound 0.3 µM, first compound 0.0316 µM) was 79.7%, the viability, T/C (second compound 0.3 µM, first compound 0.1 µM) was 70.3% and the viability, T/C (second compound 0.3 µM, first compound 0.316 µM) was 71.3%. The viability, T/C (second compound 0.3 µM, first compound 1 µM) was 73.8%, the viability, T/C (second compound 0.3 µM, first compound 3.16 µM) was 71.4% and the viability, T/C (second compound 0.3 µM, first compound 10 µM) was 69%.
